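Tested at 5 concentrations; 48 h exposure; 96-well plates; endpoints linearly interpolated, else capped at highest concentration. GI50 is the concentration that inhibits growth by half.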 Activity calls are given as the source filed them. Cut-off read from the data, not from the text of the source: active = GI50 up to about 1.1 µM and inactive = higher.
Columns and labels:
Experiment in all cases: DTP human tumour cell line panel, 48 h
Hs-578T = test system: Hs-578T
HCT-116 = test system: HCT-116
UACC-62 = test system: UACC-62
SF-268 = test system: SF-268
786-0 = test system: 786-0
MOLT-4 = test system: MOLT-4
A549 = test system: A549
HOP-92 = test system: HOP-92
NCI-H522 = test system: NCI-H522
MDA-MB-435 = test system: MDA-MB-435
SNB-19 = test system: SNB-19
SK-MEL-5 = test system: SK-MEL-5
MDA-MB-231 = test system: MDA-MB-231
NCI-H23 = test system: NCI-H23
OVCAR-3 = test system: OVCAR-3
Malme-3M = test system: Malme-3M
K562 = test system: K562
CAKI-1 = test system: CAKI-1
BT-549 = test system: BT-549

Row | SMILES | GI50 (Hs-578T) | GI50 (HCT-116) | GI50 (UACC-62) | GI50 (SF-268) | GI50 (786-0) | GI50 (MOLT-4) | GI50 (A549) | GI50 (HOP-92) | GI50 (NCI-H522) | GI50 (MDA-MB-435) | GI50 (SNB-19) | GI50 (SK-MEL-5) | GI50 (MDA-MB-231) | GI50 (NCI-H23) | GI50 (OVCAR-3) | GI50 (Malme-3M) | GI50 (K562) | GI50 (CAKI-1) | GI50 (BT-549)
1 | CCCCCCCCCCCCCCCCC1=CC(=O)C=C(OC)C1=O | 37.6 µM (inactive) | 56 µM (inactive) | 34.7 µM (inactive) | > 100 µM (inactive) | 47.2 µM (inactive) | > 100 µM (inactive) | 89.5 µM (inactive) | 56.8 µM (inactive) | > 100 µM (inactive) | > 100 µM (inactive) | 56.4 µM (inactive) | > 100 µM (inactive) | > 100 µM (inactive) | 62.2 µM (inactive) | > 100 µM (inactive) | > 100 µM (inactive) | 47.4 µM (inactive) | > 100 µM (inactive) | 
2 | c1ccc(COc2ccc(CC3SCCCS3)cc2)cc1 |  | > 100 µM (inactive) | > 100 µM (inactive) | > 100 µM (inactive) |  | 31.8 µM (inactive) | > 100 µM (inactive) | 17.8 µM (inactive) | > 100 µM (inactive) | > 100 µM (inactive) | > 100 µM (inactive) | 35.2 µM (inactive) | 74.1 µM (inactive) |  | > 100 µM (inactive) | > 100 µM (inactive) | 52.5 µM (inactive) | 62.7 µM (inactive) | 
3 | C/C=C(/C)C(=O)O[C@@H]1c2c(C)coc2C[C@H]2CC[C@H](O)[C@H](C)[C@]21C | 64.7 µM (inactive) | 31.6 µM (inactive) | 43.8 µM (inactive) | 70.8 µM (inactive) |  | 30.6 µM (inactive) |  | 74.8 µM (inactive) | 60 µM (inactive) | 38.5 µM (inactive) | > 100 µM (inactive) | 35.6 µM (inactive) | 71.6 µM (inactive) | 34.2 µM (inactive) | 27 µM (inactive) | 26.9 µM (inactive) | 38 µM (inactive) | > 100 µM (inactive) | 
4 | CC1(C)CCC2=C(O1)c1ccccc1/C(=N/c1ccc([N+](=O)[O-])cc1)C2=O | 29 µM (inactive) | 7.33 µM (inactive) | 14.7 µM (inactive) | 29.7 µM (inactive) | 20 µM (inactive) | 13.8 µM (inactive) | 16.4 µM (inactive) | 39.1 µM (inactive) | 13.6 µM (inactive) |  | 18.5 µM (inactive) | 16.7 µM (inactive) | 17.7 µM (inactive) |  | 12.3 µM (inactive) | 16 µM (inactive) | 13.4 µM (inactive) | 16.7 µM (inactive) | 20.1 µM (inactive)
5 | CN(C)CCNC(=O)c1cc([N+](=O)[O-])cc2c1Oc1ccccc1O2 | 28.6 µM (inactive) | 7.33 µM (inactive) | 11.9 µM (inactive) | 21.6 µM (inactive) | 15.6 µM (inactive) | 3.94 µM (inactive) | 13.5 µM (inactive) |  | 21.7 µM (inactive) | 39.7 µM (inactive) |  | 23 µM (inactive) |  | 51.8 µM (inactive) | 41.8 µM (inactive) | 21.7 µM (inactive) | 23.2 µM (inactive) | 15.6 µM (inactive) | 35.5 µM (inactive)
6 | CCOC(=O)C1(C(=O)OCC)COS(=O)OC1 | 83.6 µM (inactive) | 17.4 µM (inactive) |  | > 10 µM (inactive) |  | 16.4 µM (inactive) | > 100 µM (inactive) | 12.6 µM (inactive) | 0.604 µM (active) | 36.7 µM (inactive) | > 100 µM (inactive) | 35.6 µM (inactive) | 16.9 µM (inactive) | 49.7 µM (inactive) | 19.9 µM (inactive) |  | 21.4 µM (inactive) |  | 
7 | OC1CCCC1C(O)(C(F)(F)F)C(F)(F)F (stereo not given) | > 100 µM (inactive) | > 100 µM (inactive) | > 100 µM (inactive) | > 100 µM (inactive) | > 100 µM (inactive) | > 100 µM (inactive) | > 100 µM (inactive) | > 100 µM (inactive) | > 100 µM (inactive) | > 100 µM (inactive) | > 100 µM (inactive) | > 100 µM (inactive) | > 100 µM (inactive) | > 100 µM (inactive) | > 100 µM (inactive) | > 100 µM (inactive) | > 100 µM (inactive) | > 100 µM (inactive) | 
8 | C[n+]1c2ccccc2c(C(=O)Nc2ccc(S(=O)(=O)N=C(N)N)cc2)c2ccccc21 | > 100 µM (inactive) | > 100 µM (inactive) | > 100 µM (inactive) | > 100 µM (inactive) | > 100 µM (inactive) | 25.5 µM (inactive) | > 100 µM (inactive) |  | > 100 µM (inactive) | > 100 µM (inactive) | > 100 µM (inactive) | > 100 µM (inactive) | 23.2 µM (inactive) | > 100 µM (inactive) | > 100 µM (inactive) | > 100 µM (inactive) | > 100 µM (inactive) | > 100 µM (inactive) | 
9 | COC(=O)CN(CC(=O)NCCCBr)C1CCCCC1N(CC(=O)OC)CC(=O)OC (stereo not given) | 53.7 µM (inactive) | > 100 µM (inactive) | > 100 µM (inactive) | > 100 µM (inactive) | > 100 µM (inactive) | > 100 µM (inactive) | > 100 µM (inactive) | 77.3 µM (inactive) | > 100 µM (inactive) | > 100 µM (inactive) | > 100 µM (inactive) | > 100 µM (inactive) | > 100 µM (inactive) | > 100 µM (inactive) | > 100 µM (inactive) |  | > 100 µM (inactive) | > 100 µM (inactive) | > 100 µM (inactive)
10 | Cc1cc(O)nc(NN2C(Cl)C(=O)C2c2cccc(O)c2)n1 (stereo not given) |  | 2.87 µM (inactive) | 3.37 µM (inactive) | 5.62 µM (inactive) |  | 5.38 µM (inactive) | 4.44 µM (inactive) | 4.67 µM (inactive) |  |  | 3.48 µM (inactive) | 12.2 µM (inactive) |  | 5.73 µM (inactive) | 3.14 µM (inactive) |  | 2.7 µM (inactive) |  | 
11 | NC(CCCCP(=O)(O)O)C(=O)O (stereo not given) | > 100 µM (inactive) | > 100 µM (inactive) | > 100 µM (inactive) | > 100 µM (inactive) |  | > 100 µM (inactive) | > 100 µM (inactive) | > 100 µM (inactive) | 26.9 µM (inactive) | > 100 µM (inactive) | > 100 µM (inactive) | > 100 µM (inactive) | > 100 µM (inactive) | > 100 µM (inactive) | > 100 µM (inactive) |  | > 100 µM (inactive) | 14.3 µM (inactive) | > 100 µM (inactive)
12 | COC1=CC(=O)C2=C(C1=O)[C@H]1CC[C@]3(C)[C@@H](O)CC[C@H]3[C@@H]1CC2 | 19.9 µM (inactive) | 17 µM (inactive) | 17.5 µM (inactive) | 17.3 µM (inactive) | 19.5 µM (inactive) | 3.48 µM (inactive) | 18.4 µM (inactive) | 21.6 µM (inactive) | 17.9 µM (inactive) | 17.9 µM (inactive) | 24.4 µM (inactive) | 15.5 µM (inactive) | 2.21 µM (inactive) | 23.7 µM (inactive) | 17.9 µM (inactive) |  | 28.9 µM (inactive) | 25 µM (inactive) | 17.9 µM (inactive)
13 | O=C1/C(=C\c2cccc(Oc3ccccc3)c2)S(=O)(=O)C(c2ccccc2)N1c1ccc(Cl)cc1 (stereo not given) |  | 13.9 µM (inactive) | 7.82 µM (inactive) |  | 14 µM (inactive) | 4.59 µM (inactive) | 42.9 µM (inactive) | 14 µM (inactive) | 15.7 µM (inactive) | 7.94 µM (inactive) | 25.1 µM (inactive) | 13.6 µM (inactive) | 14.8 µM (inactive) | 24.9 µM (inactive) | 14.4 µM (inactive) | 18.2 µM (inactive) | 10.6 µM (inactive) | 13.2 µM (inactive) | 22.6 µM (inactive)
14 | CC12CCC(Br)C(C)(C)C1CC=C1C(=O)OCC1O2 (stereo not given) | 10.9 µM (inactive) | 12.9 µM (inactive) | 8.59 µM (inactive) | 14.1 µM (inactive) | 19.4 µM (inactive) | 7.05 µM (inactive) | 23.6 µM (inactive) | 11.9 µM (inactive) | 3.52 µM (inactive) | 12 µM (inactive) | 18.2 µM (inactive) | 15.1 µM (inactive) | 14.4 µM (inactive) | 11.8 µM (inactive) | 16.9 µM (inactive) |  | 12.7 µM (inactive) | 11.6 µM (inactive) | 14.9 µM (inactive)
15 | CCOC(=O)CCC(C(=O)OCC)n1nnc2ccc(Nc3c(C)[n+]([O-])c4cc(F)c(OCC)cc4[n+]3[O-])cc21 (stereo not given) | > 100 µM (inactive) | 64.3 µM (inactive) | 20.1 µM (inactive) | 28 µM (inactive) | > 100 µM (inactive) | 44.7 µM (inactive) | 77.8 µM (inactive) | 24.6 µM (inactive) | 61.7 µM (inactive) | 42.9 µM (inactive) | > 100 µM (inactive) | 50.8 µM (inactive) |  | 73.3 µM (inactive) | 25.4 µM (inactive) | 35.6 µM (inactive) | 41.4 µM (inactive) | 66.1 µM (inactive) | 96.2 µM (inactive)
16 | CC(=O)CCC[C@H](C)[C@@H](O)[C@@H]1O[C@H]([C@@]2(C)CCC(=O)O2)C[C@H]1C(=O)O | > 100 µM (inactive) | > 100 µM (inactive) | > 100 µM (inactive) | > 100 µM (inactive) | > 100 µM (inactive) | > 100 µM (inactive) | > 100 µM (inactive) |  | > 100 µM (inactive) | > 100 µM (inactive) | > 100 µM (inactive) | > 100 µM (inactive) | > 100 µM (inactive) | > 100 µM (inactive) | > 100 µM (inactive) |  | > 100 µM (inactive) | > 100 µM (inactive) | 35.6 µM (inactive)
